Reference: patent US7273877B2, “5-substituted-4-[(substituted phenyl) amino]-2-pyridone derivatives” (Warner-Lambert Company, LLC, priority 2003, dated 2007)

| Structure (SMILES) | melting point [°C] |
| --- | --- |
| Cn1cc(C(N)=O)c(Nc2ccc(C(F)(F)C(F)(F)C(F)(F)C(F)(F)F)cc2F)cc1=O | 112 to 118 |
| C#Cc1ccc(Nc2cc(=O)[nH]cc2C(=O)NCCO)c(F)c1 [Example 12, 4-(4-Ethynyl-2-fluoroanilino)-N-(2-hydroxyethyl)-6-oxo-1,6-dihydro-3-pyridinecarboxamide] | 265 to 273 |
| CCc1ccc(Nc2cc(=O)[nH]cc2C(=O)NCCO)c(F)c1 [Example 13] | 256 to 258 |
| CCc1ccc(Nc2cc(=O)[nH]cc2C(=O)NCCCO)c(F)c1 [Example 16, 4-(4-Ethyl-2-fluoroanilino)-N-(3-hydroxypropyl)-6-oxo-1,6-dihydro-3-pyridinecarboxamide] | 231 to 233 |
| NC(=O)c1cn(CCO)c(=O)cc1Nc1ccc(I)cc1F [Example 22, 4-(2-Fluoro-4-iodoanilino)-1-(2-hydroxyethyl)-6-oxo-1,6-dihydro-3-pyridinecarboxamide] | 212 to 215 |
| O=C(NCCCO)c1cn(CCO)c(=O)cc1Nc1ccc(I)cc1F [Example 23, 4-(2-Fluoro-4-iodoanilino)-1-(2-hydroxyethyl)-N-(3-hydroxypropyl)-6-oxo-1,6-dihydro-3-pyridinecarboxamide] | 174 to 176 |
| CCCn1cc(C(N)=O)c(Nc2ccc(I)cc2F)cc1=O [Example 28, 4-(2-Fluoro-4-iodoanilino)-6-oxo-1-propyl-1,6-dihydro-3-pyridinecarboxamide] | 218 to 220 |
| NC(=O)c1cn(CCCO)c(=O)cc1Nc1ccc(I)cc1F [Example 32, 4-(2-Fluoro-4-iodoanilino)-1-(3-hydroxypropyl)-6-oxo-1,6-dihydro-3-pyridinecarboxamide] | 220 to 223 |
| Cn1cc(C(=O)NOCCO)c(Nc2ccc(F)cc2F)cc1=O [Example 33, 4-(2,4-Difluoroanilino)-N-(2-hydroxyethoxy)-1-methyl-6-oxo-1,6-dihydro-3-pyridinecarboxamide] | 232 to 238 |
| Cc1ccc(Nc2cc(=O)n(C)cc2C(=O)NCCCO)c(F)c1 [Example 36, 4-(2-Fluoro-4-methylanilino)-N-(3-hydroxypropyl)-1-methyl-6-oxo-1,6-dihydro-3-pyridinecarboxamide] | 142 to 145 |
| Cn1cc(C(N)=O)c(Nc2ccc3ccccc3c2)cc1=O [Example 43, 1-Methyl-4-(2-naphthylamino)-6-oxo-1,6-dihydro-3-pyridinecarboxamide] | 254 to 257 |
| Cn1cc(C(=O)NC(CO)CO)c(Nc2ccc(I)cc2F)cc1=O [Example 46, 4-(2-Fluoro-4-iodoanilino)-N-[2-hydroxy-1-(hydroxymethyl)ethyl]-1-methyl-6-oxo-1,6-dihydro-3-pyridinecarboxamide] | 93 to 98 |
| CC(O)CNC(=O)c1cn(C)c(=O)cc1Nc1ccc(I)cc1F (stereo not drawn) [Example 50, 4-(2-Fluoro-4-iodoanilino)-N-(2-hydroxypropyl)-1-methyl-6-oxo-1,6-dihydro-3-pyridinecarboxamide] | 161 to 166 |
| Cn1cc(C(=O)NCCCN)c(Nc2ccc(I)cc2F)cc1=O [Example 53, N-(3-Aminopropyl)-4-(2-fluoro-4-iodoanilino)-1-methyl-6-oxo-1,6-dihydro-3-pyridinecarboxamide] | 201 to 206 |

Continued, values first:

| melting point [°C] | Structure (SMILES) |
| --- | --- |
| 205 to 208 | Cn1cc(C(=O)NCCO)c(Nc2ccc(I)cc2F)cc1=O [Example 4, 4-(2-Fluoro-4-iodoanilino)-N-(2-hydroxyethyl)-1-methyl-6-oxo-1,6-dihydro-3-pyridinecarboxamide] |
| 249 to 252 | C#Cc1ccc(Nc2cc(=O)[nH]cc2C(=O)NCCCO)c(F)c1 [Example 15, 4-(4-Ethynyl-2-fluoroanilino)-N-(3-hydroxypropyl)-6-oxo-1,6-dihydro-3-pyridinecarboxamide] |
| 268 to 272 | CCc1ccc(Nc2cc(=O)n(C)cc2C(N)=O)c(F)c1 [Example 18, 4-(4-Ethyl-2-fluoroanilino)-1-methyl-6-oxo-1,6-dihydro-3-pyridinecarboxamide] |
| 296 to 300 | NC(=O)c1cn(CC(=O)O)c(=O)cc1Nc1ccc(I)cc1F [Example 25] |
| 146 to 150 | N#CCCCn1cc(C(N)=O)c(Nc2ccc(I)cc2F)cc1=O [Example 26, 1-(3-Cyanopropyl)-4-(2-fluoro-4-iodoanilino)-6-oxo-1,6-dihydro-3-pyridinecarboxamide] |
| 260 to 262 | CCn1cc(C(N)=O)c(Nc2ccc(I)cc2F)cc1=O [Example 27, 1-Ethyl-4-(2-fluoro-4-iodoanilino)-6-oxo-1,6-dihydro-3-pyridinecarboxamide] |
| 114 to 116 | COCCOCCn1cc(C(N)=O)c(Nc2ccc(I)cc2F)cc1=O [Example 29, 4-(2-Fluoro-4-iodoanilino)-1-[2-(2-methoxyethoxy)ethyl]-6-oxo-1,6-dihydro-3-pyridinecarboxamide] |
| 129 to 132 | Cn1cc(C(=O)NCCCO)c(Nc2ccc(F)cc2F)cc1=O [Example 34, 4-(2,4-Difluoroanilino)-N-(3-hydroxypropyl)-1-methyl-6-oxo-1,6-dihydro-3-pyridinecarboxamide] |
| 110 to 115 | Cc1ccc(Nc2cc(=O)n(C)cc2C(=O)NOCCO)c(F)c1 [Example 35, 4-(2-Fluoro-4-methylanilino)-N-(2-hydroxyethoxy)-1-methyl-6-oxo-1,6-dihydro-3-pyridinecarboxamide] |
| 124 to 128 | Cn1cc(C(=O)NOCCO)c(Nc2ccc(Br)cc2F)cc1=O [Example 38, 4-(4-Bromo-2-fluoroanilino)-N-(2-hydroxyethoxy)-1-methyl-6-oxo-1,6-dihydro-3-pyridinecarboxamide] |
| 167 to 170 | Cn1cc(C(=O)NCCCO)c(Nc2ccc(Br)cc2F)cc1=O [Example 39, 4-(4-Bromo-2-fluoroanilino)-N-(3-hydroxypropyl)-1-methyl-6-oxo-1,6-dihydro-3-pyridinecarboxamide] |
| 96 to 101 | Cn1cc(C(=O)NCC(O)CO)c(Nc2ccc(I)cc2F)cc1=O (stereo not drawn) [Example 45, N-(2,3-Dihydroxypropyl)-4-(2-fluoro-4-iodoanilino)-1-methyl-6-oxo-1,6-dihydro-3-pyridinecarboxamide] |
| 198 to 202 | CC(CO)NC(=O)c1cn(C)c(=O)cc1Nc1ccc(I)cc1F (stereo not drawn) [Example 49, 4-(2-Fluoro-4-iodoanilino)-N-(2-hydroxy-1-methylethyl)-1-methyl-6-oxo-1,6-dihydro-3-pyridinecarboxamide] |
| 106 to 111 | CN(C)C(=O)c1cn(C)c(=O)cc1Nc1ccc(I)cc1F [Example 52, 4-(2-Fluoro-4-iodoanilino)-N,N,1-trimethyl-6-oxo-1,6-dihydro-3-pyridinecarboxamide] |
| 261 to 266 | Cn1cc(C(N)=O)c(Nc2ccc(C#N)cc2F)cc1=O [Example 54, 4-(4-Cyano-2-fluoroanilino)-1-methyl-6-oxo-1,6-dihydro-3-pyridinecarboxamide] |
| 254 to 257 | Cn1cc(C(=O)O)c(Nc2ccc(I)cc2F)cc1=O [Example 55, 4-(2-fluoro-4-iodoanilino)-1-methyl-6-oxo-1,6-dihydro-3-pyridinecarboxylic acid] |
